Experiments:
melanoma cells = experiment: Cell invasion assay (Transwell, ECM gel); format: cell-based, mouse; details: 2% methyl sulfone
Method: Invasion assays were performed in Transwell chambers (Corning). The 8 μm pore membranes of the upper chambers were coated with ECM gel from Engelbreth-Holm-Swarm murine sarcoma (Sigma), diluted 1:6 with RPMI medium +/−2% methyl sulfone, and placed in a well with RPMI medium +/−2% methyl sulfone. Cells (1×10^5 cells/200 μl) were seeded into appropriate upper chambers in RMPI medium+/−2% methyl sulfone. After 20 hours of incubation at 37° C., cells were removed from top surface of the chamber and filters were fixed with 5% glutaraldeyde. Cells on the lower surface of the filter were stained with a 0.5% solution of toluidine blue. Membranes of inserts were removed with a razor, mounted between a glass slide and a coverslip, and held in place with scotch tape. Cells were photographed and counted at the Center for Cell Analysis and Modeling, University of Connecticut Health Center, Farmington, Conn., with an Axioplan CCD Microscope equipped with a 40×1.3 NA FL objective lens and high speed digital cooled CCD camera via Metamorph image acquisition and analysis software (Universal Imaging Corp., Downington, Pa.). All assays were performed in triplicate.
A second classic characteristic of metastatic cells is their ability to migrate through an extracellular matrix. We determined whether methyl sulfone altered this ability in melanoma cells. […]

[1] = system: Mouse breast cancer cells (66Cl-1); experiment: Effects of methyl sulfone on estrogen receptor-negative breast cancer cells; format: cell-based
Method: Cloudman S-91 mouse melanoma cells (sub-clone M-3, CCL 53.1; American Type Culture Collection, Rockville, Md.) were grown in RMPI medium supplemented with 10% fetal bovine serum (Invitrogen, Inc) and 5% penicillin-streptomycin (Invitrogen, Inc). Mouse breast cancer cells (66Cl-1; American Type Culture Collection, Rockville, Md.) that are estrogen-receptor negative were grown in DMEM medium supplemented with 10% fetal bovine serum (Invitrogen, Inc) and 5% penicillin/streptomycin (Invitrogen, Inc). Human T-cell leukemic lymphocytes (CEM; American Type Culture Collection, Rockville, Md.) were grown in MEM medium supplemented with 7% fetal calf serum. Cultures were passaged twice a week. […]
Cells were plated onto sterile 12 mm coverslips in 35 mm tissue culture plates and incubated at 37° C., 5% CO2. After 24 hours, 2% methyl sulfone in medium or medium alone was added the plates and incubated at 37° C., 5% CO2 for 48 and 72 hrs. BrdU (Molecular Probes, Eugene, Oreg., USA; diluted ⅓ in RPMI medium) was added to each plate for 60 minutes at 37° C., 5% CO2. Coverslips were transferred to porcelain holders, washed with PBS, fixed in methanol/acetone (1:1), washed with PBS, and incubated in 5% BSA/PBS for 30 minutes at room temperature. To denature DNA, coverslips were placed in 0.1N HCL/1% Triton X-100 for 10 minutes at room temperature. After washing in PBS, cells were incubated with Alexa Fluor 488 anti-BrdU antibody (Molecular Probes, Eugene, Oreg.; diluted 1/20 in 5% BSA/PBS) for 60 minutes at room temperature. Cells were washed in PBS and incubated with Hoechst (diluted 1/1000 in PBS) in the dark at room temperature. After washing in PBS, cells were dipped in dH2O and drained onto Kim Wipes. SlowFade mounting medium (Molecular Probes, Eugene, Oreg.) was added to a glass slide and coverslips were placed face down onto slides and sealed with clear nail polish. Cells were viewed at the Center for Cell Analysis and Modeling, University of Connecticut Health Center, Farmington, Conn., with an Axioplan CCD Microscope equipped with a 40×1.3 NA FL objective lens, equipped with a Photometrics PXL-EEV37 high speed digital cooled CCD camera. Molecular Devices Metamorph was used for image acquisition.
Cells were plated on 8-35 mm plates that contained base agar with and without 2% methyl sulfone. To make base agar, 1% agar (DNA grade; Difco Bacto Agar; Becton Dickenson and Company, Sparks, Md.), was mixed in water at room temperature, melted in a microwave, and cooled to 40° C. before using. For drug plates, 1% agar was combined (1:1) with 4% methyl sulfone in 2×RPMI medium with sodium bicarbonate supplemented with 10% FBS and 5% penicillin/streptomycin. For control plates, 1% agar was combined (1:1) with 2×RMPI medium. Agar +/−2% methyl sulfone was added to appropriate 35 mm tissue culture plates and stored overnight at 4° C. The next day top agar and cells were placed on top of the base agar. Top agar was made with 0.66% agar in water. The agar was melted in a microwave, cooled, and stored at 40° C. 2×RPMI medium and 4% methyl sulfone was also stored at 40° C. Cells were trypsinized and counted for a final concentration of 5×10^3 cells/plate. Cell counts were adjusted to 2×10^5 cells/ml and 0.05 ml of the cell suspension was added to 15 ml centrifuge tubes (2 each). Base agar plates were removed from 4° C. and allowed to warm to room temperature for approximately 30 minutes prior to plating. For plating control cells, 2×RPMI medium and 0.66% agar were added to the tube of cell suspension, gently mixed, and placed on top of control base agar plates. For plating cells in 2% methyl sulfone, 4% methyl sulfone (in 2×RMPI medium) and 0.66% agar was added to the tube of cell suspension, mixed gently, and placed on top of the drug base agar plates. Cells were incubated in the 37° C., 5% CO2 incubator for 10-14 days. Plates were stained with 0.005% crystal violet for 1 hour. Colonies were photographed and counted with a dissecting microscope. […]

methyl sulfone
cells that migrated through the extracellular matrix (melanoma cells): none and unable to pass through the membrane
DNA synthesis ([1]; 2% methyl sulfone): markedly reduced
cell growth anchorage dependence ([1]; 2% methyl sulfone): anchorage-dependent
contact inhibition ([1]; 2% methyl sulfone): contact inhibited
migration of cells through an extracellular matrix ([1]; 2% methyl sulfone): inhibited
mitochondrial activity ([1]; 2% methyl sulfone): decreased
senescence ([1]; 2% methyl sulfone): became senescent
wound healing ([1]; 2% methyl sulfone): proceeded normally
methyl sulfone concentration inducing apoptosis in breast cancer cells ([1]; breast cancer cells): above 2%

From patent US10363229B2, “Methods and compositions for the treatment of cancer” (priority 2009, dated 2019)
